The results in this text go back to patent US20230105212A1, “BIPHENYL DERIVATIVE INHIBITOR, PREPARATION METHOD THEREFOR AND USE THEREOF” (SHANGHAI HANSOH BIOMEDICAL CO., LTD., priority 2020, published 2023).

This assay addresses T1, hERG potassium channel (Homo sapiens, UniProt Q12809).
T1 construct: expressed in transfected cells; host or cells: CHO-hERG cells
In words: Inhibitory activity test of hERG potassium channel (Qpatch, CHO-hERG cells). In kind it is cell-based. The following applies: 6 concentrations up to 40 μM. On the procedure:
Test Embodiment 9. Inhibitory Activity Test of hERG Potassium Channel
1.1 CHO-hERG cells were cultured in a 175 cm^2 culture flask. When the cell density reached 60 to 80%, the culture medium was removed, washed with 7 mL of PBS, and then digested with 3 mL of Detachin.
1.2 After the digestion was completed, 7 mL of culture medium was added to neutralize, then centrifuged, and the supernatant was aspirated, and 5 mL of culture medium was added to resuspend to ensure the cell density was 2 to 5×10^6/mL.
Single-cell high-impedance sealing and whole-cell pattern formation were all performed automatically by the Qpatch instrument. After the whole-cell recording pattern was obtained, the cell was clamped at −80 mV, before a +40 mV depolarizing stimulus for 5 s was given, a pre-voltage of −50 mV for 50 ms was given, then repolarized to −50 mV for 5 s, and then returned to −80 mV. This voltage stimulus was applied every 15 seconds, and recorded for 2 minutes, then the extracellular solution was given and then recorded for 5 minutes. Then the dosing process was started. The compound concentration started from the lowest test concentration, and each test concentration was administered for 2.5 minutes. After all concentrations were continuously administered, the positive control compound 3 μM Cisapride was administered. […]
The experimental data was analyzed by XLFit software.
For orientation: hERG is a cardiac potassium channel; its block is linked to QT prolongation.

Molecules are shown by their SMILES.

T1 sequence (Q12809 whole entry): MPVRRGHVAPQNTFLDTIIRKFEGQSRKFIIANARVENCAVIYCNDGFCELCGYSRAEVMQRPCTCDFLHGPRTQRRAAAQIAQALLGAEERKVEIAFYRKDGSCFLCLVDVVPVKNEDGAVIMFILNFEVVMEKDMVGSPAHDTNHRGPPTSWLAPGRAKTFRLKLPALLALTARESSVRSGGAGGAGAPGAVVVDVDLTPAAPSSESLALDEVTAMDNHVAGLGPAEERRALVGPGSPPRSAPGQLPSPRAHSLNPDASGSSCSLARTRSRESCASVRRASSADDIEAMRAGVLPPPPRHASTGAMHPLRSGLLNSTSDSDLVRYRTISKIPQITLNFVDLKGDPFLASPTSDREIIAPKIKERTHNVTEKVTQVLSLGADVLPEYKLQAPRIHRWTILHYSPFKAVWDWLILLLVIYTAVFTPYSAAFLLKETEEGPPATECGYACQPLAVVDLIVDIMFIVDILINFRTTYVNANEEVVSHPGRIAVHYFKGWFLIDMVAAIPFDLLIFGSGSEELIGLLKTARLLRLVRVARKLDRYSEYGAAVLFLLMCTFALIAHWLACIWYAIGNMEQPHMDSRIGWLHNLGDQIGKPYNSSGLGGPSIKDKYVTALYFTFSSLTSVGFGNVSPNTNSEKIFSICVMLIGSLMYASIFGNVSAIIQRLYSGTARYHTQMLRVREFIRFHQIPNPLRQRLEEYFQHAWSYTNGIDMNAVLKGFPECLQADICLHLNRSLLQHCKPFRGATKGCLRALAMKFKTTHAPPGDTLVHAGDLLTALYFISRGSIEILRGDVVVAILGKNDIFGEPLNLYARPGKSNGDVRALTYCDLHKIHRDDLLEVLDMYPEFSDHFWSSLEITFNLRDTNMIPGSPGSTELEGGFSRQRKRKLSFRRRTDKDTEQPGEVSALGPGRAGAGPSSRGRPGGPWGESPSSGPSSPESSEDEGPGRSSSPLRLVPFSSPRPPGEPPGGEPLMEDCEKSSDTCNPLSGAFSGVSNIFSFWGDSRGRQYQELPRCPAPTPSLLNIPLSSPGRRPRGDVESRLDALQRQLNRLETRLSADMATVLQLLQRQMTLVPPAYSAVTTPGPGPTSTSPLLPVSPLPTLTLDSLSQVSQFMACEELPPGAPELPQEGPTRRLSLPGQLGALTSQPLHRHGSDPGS

For the compound `COc1nc(-c2cccc(-c3cccc(NC(=O)c4nc5c(n4C)CCN(C)C5)c3Cl)c2Cl)ncc1CN1CC(CO)C1` [Embodiment 223, N-(2,2′-Dichloro-3′-(5-((3-(hydroxymethyl)azetidin-1-yl)methyl)-4-methoxypyrimidin-2-yl)-[1,1′-biphenyl]-3-yl)-1,5-dimethyl-4,5,6,7-tetrahydro-1H-imidazo[4,5-c]pyridine-2-carboxamide], the midpoint of inhibition, the IC50, lay at 14.8 µM.
